Measured values from patent US20120301551A1, “COMPOUNDS AND COMPOSITIONS FOR TREATING NEURONAL DEATH OR NEUROLOGICAL DYSFUNCTION” (Neurotech Pharmaceuticals Co., Ltd., priority 2005, published 2012).

How the values were obtained:
Format in all cases: in vivo, mouse
[1] = test system: APPswe/PS1deltaE9 double transgenic mice; assay: Morris water maze in APPswe/PS1deltaE9 double transgenic mice; settings: 25 mg/kg/day chemical 01 or 62.5 mg/kg/day ibuprofen for 14.5 months (3~17.5 months)
Procedure: After administration of 14.5 months, the cognitive function was analyzed by Morris water maze test like example 10-3-1 (mean±SEM, n=3-5).
(§1) 17.5 month-old APPswe/PS1deltaE9 double transgenic mice were fed chow alone (saline only), or containing 25 mg/kg/day of chemical—01, for […] (3˜17.5 month).
The cognitive function was analyzed by Morris water maze test. Mice ware trained to perform a hidden platform task in the Morris water maze. The latency to find the platform was recorded for each mouse.

[2] = test system: APPswe/PS1deltaE9 double transgenic mice; assay: brain Aβ40/Aβ42 levels in APPswe/PS1deltaE9 double transgenic mice (ELISA); settings: 25 mg/kg/d chemical 01 or 62.5 mg/kg/day ibuprofen for 14.5 months
Procedure: SDS-soluble/insoluble Aβ40 or Aβ42 levels were analyzed by colorimetric sandwich ELISA kit (BIOSOURCE, Camarillo, Calif.).

[3] = test system: APPswe/PS1deltaE9 double transgenic mice; assay: open field activity in APPswe/PS1deltaE9 double transgenic mice; settings: 25 mg/kg/day chemical 01 or 62.5 mg/kg/day ibuprofen for 14.5 months (3~17.5 months)
Procedure: After administration of drug for 14.5 months, Open field activity test was performed to evaluate locomotor activity and exploratory behavior. 4×4 of scale marks were drawn in white acryl box having a size of 60 cm×60 cm×35 cm (width×length×height) to make sixteen squares. Four squares in the center became center zone and twelve squares around the center zone became peripary zone. Mice were laid into transparent acryl tube (diameter: about 3.5 inches) laid at the left corner of the acryl box for 30 seconds. After 30 seconds, acryl tube was removed to make mouse free. Experiment was once performed for each mouse for 5 minutes. The distance traveled in the open field was recorded (mean±SEM, n=3-5).
as §1
Open field activity was used to evaluate locomotor activity and exploratory behavior. The distance traveled in the open field was recorded and performance was analyzed after the testing took place.

`CC(C)Cc1ccc(C(C)C(=O)O)cc1` (stereo not drawn) [ibuprofen, reference compound] was tested, and the “escape latency / cognitive function (Morris water maze)” value [1] was “did not improved cognitive function”, the “SDS-soluble/insoluble Aβ40 or Aβ42 levels, in words” value [2] was “did not reduce” and the “open field activity (distance traveled)” value [3] was “non-significant trend”.
